According to US6645918B1, “N-([1,2,4]triazoloazinyl)thiophenesulfonamide compounds and their use as herbicides” (Dow AgroSciences LLC, priority 2000, dated 2003):

Tests used:
Type in all cases: in vivo
viola (Viola tricolor) = assay: Postemergence herbicidal activity, viola; conditions: 7.8 ppm, foliar spray, visual after 2 weeks; 0 no injury, 100 complete kill
Method: (§1) Seeds of the desired test plant species were planted in Grace-Sierra MetroMix® 306 planting mixture, which typically has a pH of 6.0 to 6.8 and an organic matter content of about 30 percent, in plastic pots with a surface area of 64 square centimeters. When required to ensure good germination and healthy plants, a fungicide treatment and/or other chemical or physical treatment was applied. The plants were grown for 7-21 days in a greenhouse with an approximately 15 hr photoperiod which was maintained at about 23-29° C. during the day and 22-28° C. during the night. Nutrients and water were added on a regular basis and supplemental lighting was provided with overhead metal halide 1000 Watt lamps as necessary. The plants were employed for testing when they reached the first or second true leaf stage. A weighed amount of each test compound, determined by the highest rate to be tested, was placed in a 20 mL glass vial and was dissolved in 4 mL of a 97:3 v/v (volume/volume) mixture of acetone and dimethyl sulfoxide to obtain concentrated stock solutions. […] The concentrated stock solutions obtained were diluted with an aqueous mixture containing acetone, water, iso-propyl alcohol, dimethyl sulfoxide, Atplus 411F crop oil concentrate, and Triton X-155 surfactant (methylenebisdiamyl phenoxy polyethoxy ethanol) in a 48.5:39:10:1.5:1.0:0.02 v/v ratio to obtain spray solutions of known concentration. The solutions containing the highest concentration to be tested were prepared by diluting 2 mL aliquots of the stock solution with 13 mL of the mixture and lower concentrations were prepared by dilution of appropriate smaller portions of the stock solution. Approximately 1.5 mL aliquots of each solution of known concentration were sprayed evenly onto each of the test plant pots using a DeVilbiss atomizer driven by compressed air pressure of 2 to 4 psi (140 to 280 kilopascals) to obtain thorough coverage of each plant. Control plants were sprayed in the same manner with the aqueous mixture. In this test an application rate of 1 ppm results in the application of approximately 1 g/ha. The treated plants and control plants were placed in a greenhouse as described above and watered by sub-irrigation to prevent wash-off of the test compounds. After 2 weeks the condition of the test plants as compared with that of the untreated plants was determined visually and scored on a scale of 0 to 100 percent where 0 corresponds to no injury and 100 corresponds to complete kill.

[1] = system: Rox orange sorghum (Sorghum bicolor); assay: Preemergence herbicidal activity, Rox orange sorghum; conditions: soil spray, visual after 3 weeks, 0 no injury, 100 complete kill or no germination
Method: (§2) The soil matrix was contained in plastic pots with a surface area of 161 square centimeters. When required to ensure good germination and healthy plants, a fungicide treatment and/or other chemical or physical treatment was applied. A weighed amount, determined by the highest rate to be tested, of each test compound was placed in a 20 mL glass vial and was dissolved in 8 mL of a 97:3 v/v (volume/volume) mixture of acetone and dimethyl sulfoxide to obtain concentrated stock solutions. […] The stock solutions obtained were diluted with a 99.9:0.1 mixture of water and Tween® 155 surfactant (ethoxylated sorbitan fatty acid ester) to obtain application solutions of known concentration. The solutions containing the highest concentration to be tested were prepared by diluting 4 mL aliquots of the stock solution with 8.5 mL of the mixture and lower concentrations were prepared by dilution of appropriate smaller portions of the stock solution. A 2.5 mL aliquot of each solution of known concentration was sprayed evenly onto the soil of each seeded pot using a Cornwall 5.0 mL glass syringe fitted with a TeeJet TN-3 hollow cone nozzle to obtain thorough coverage of the soil in each pot. Control pots were sprayed in the same manner with the aqueous mixture. A highest application rate of 4.48 kg/ha is achieved when 50 mg of test compound is employed. The treated pots and control pots were placed in a greenhouse with an approximately 15 hr photoperiod which was maintained at about 23-29° C. during the day and 22-28° C. during the night. Nutrients and water were added on a regular basis and supplemental lighting was provided with overhead metal halide 1000 Watt lamps as necessary. The water was added by top-irrigation. After 3 weeks the condition of the test plants that germinated and grew as compared with that of the untreated plants that germinated and grew was determined visually and scored on a scale of 0 to 100 percent where 0 corresponds to no injury and 100 corresponds to complete kill or no germination.

wild oats (Avena fatua) [2] = assay: Preemergence herbicidal activity, wild oats; conditions: soil spray, visual after 3 weeks, 0 no injury, 100 complete kill or no germination
Method: as §2

[3] = system: chickweed (Stellaria media); assay: Postemergence herbicidal activity, chickweed; conditions: 7.8 ppm, foliar spray, visual after 2 weeks; 0 no injury, 100 complete kill
Method: as §1

[4] = system: giant foxtail (Setaria faberi); assay: Postemergence herbicidal activity, giant foxtail; conditions: 7.8 ppm, foliar spray, visual after 2 weeks; 0 no injury, 100 complete kill
Method: as §1

[5] = system: lambsquarters (Chenopodium album); assay: Preemergence herbicidal activity, lambsquarters; conditions: soil spray, visual after 3 weeks, 0 no injury, 100 complete kill or no germination
Method: as §2

[6] = system: wild poinsettia (Euphorbia heterophylla); assay: Preemergence herbicidal activity, wild poinsettia; conditions: soil spray, visual after 3 weeks, 0 no injury, 100 complete kill or no germination
Method: as §2

[7] = system: pigweed (Amaranthus retroflexus); assay: Postemergence herbicidal activity, pigweed; conditions: 7.8 ppm, foliar spray, visual after 2 weeks; 0 no injury, 100 complete kill
Method: as §1

[8] = system: morningglory (Ipomoea hederacea); assay: Preemergence herbicidal activity, morningglory; conditions: soil spray, visual after 3 weeks, 0 no injury, 100 complete kill or no germination
Method: as §2

[9] = system: cocklebur (Xanthium strumarium); assay: Postemergence herbicidal activity, cocklebur; conditions: 7.8 ppm, foliar spray, visual after 2 weeks; 0 no injury, 100 complete kill
Method: as §1

[10] = system: velvetleaf (Abutilion theophrasti); assay: Preemergence herbicidal activity, velvetleaf; conditions: soil spray, visual after 3 weeks, 0 no injury, 100 complete kill or no germination
Method: as §2

[11] = system: Rox orange sorghum (Sorghum bicolor); assay: Postemergence herbicidal activity, Rox orange sorghum; conditions: 7.8 ppm, foliar spray, visual after 2 weeks; 0 no injury, 100 complete kill
Method: as §1

[12] = system: pigweed (Amaranthus retroflexus); assay: Preemergence herbicidal activity, pigweed; conditions: soil spray, visual after 3 weeks, 0 no injury, 100 complete kill or no germination
Method: as §2

[13] = system: morningglory (Ipomoea hederacea); assay: Postemergence herbicidal activity, morningglory; conditions: 7.8 ppm, foliar spray, visual after 2 weeks; 0 no injury, 100 complete kill
Method: as §1

wild oats (Avena fatua) [14] = assay: Postemergence herbicidal activity, wild oats; conditions: 7.8 ppm, foliar spray, visual after 2 weeks; 0 no injury, 100 complete kill
Method: as §1

[15] = system: crabgrass (Digitaria sanguinalis); assay: Preemergence herbicidal activity, crabgrass; conditions: soil spray, visual after 3 weeks, 0 no injury, 100 complete kill or no germination
Method: as §2

[16] = system: velvetleaf (Abutilion theophrasti); assay: Postemergence herbicidal activity, velvetleaf; conditions: 7.8 ppm, foliar spray, visual after 2 weeks; 0 no injury, 100 complete kill
Method: as §1

[17] = system: lambsquarters (Chenopodium album); assay: Postemergence herbicidal activity, lambsquarters; conditions: 7.8 ppm, foliar spray, visual after 2 weeks; 0 no injury, 100 complete kill
Method: as §1

[18] = system: barnyardgrass (Echinochloa crus-galli); assay: Preemergence herbicidal activity, barnyardgrass; conditions: soil spray, visual after 3 weeks, 0 no injury, 100 complete kill or no germination
Method: as §2

[19] = system: blackgrass (Alopecurus myosuroides); assay: Preemergence herbicidal activity, blackgrass; conditions: soil spray, visual after 3 weeks, 0 no injury, 100 complete kill or no germination
Method: as §2

[20] = system: blackgrass (Alopecurus myosuroides); assay: Postemergence herbicidal activity, blackgrass; conditions: 7.8 ppm, foliar spray, visual after 2 weeks; 0 no injury, 100 complete kill
Method: as §1

[21] = system: giant foxtail (Setaria faberi); assay: Preemergence herbicidal activity, giant foxtail; conditions: soil spray, visual after 3 weeks, 0 no injury, 100 complete kill or no germination
Method: as §2

[22] = system: cocklebur (Xanthium strumarium); assay: Preemergence herbicidal activity, cocklebur; conditions: soil spray, visual after 3 weeks, 0 no injury, 100 complete kill or no germination
Method: as §2

CCOc1cscc1S(=O)(=O)Nc1nc2c(OC)cnc(OC)n2n1 [Compound 13]
VIOTR postemergence injury score 0-100 (viola (Viola tricolor)): 75%
SORBI preemergence injury score 0-100 ([1]; 4.4 g/Ha): 100%
AVEFA preemergence injury score 0-100 (wild oats (Avena fatua) [2]; 4.4 g/Ha): 100%
STEME postemergence injury score 0-100 [3]: 95%
SETFA postemergence injury score 0-100 [4]: 95%
CHEAL preemergence injury score 0-100 ([5]; 4.4 g/Ha): 100%
EPHHL preemergence injury score 0-100 ([6]; 4.4 g/Ha): 100%
AMARE postemergence injury score 0-100 [7]: 100%
IPOHE preemergence injury score 0-100 ([8]; 4.4 g/Ha): 90%
XANST postemergence injury score 0-100 [9]: 95%
ABUTH preemergence injury score 0-100 ([10]; 4.4 g/Ha): 80%
SORBI postemergence injury score 0-100 [11]: 95%
AMARE preemergence injury score 0-100 ([12]; 4.4 g/Ha): 90%
IPOHE postemergence injury score 0-100 [13]: 75%
AVEFA postemergence injury score 0-100 (wild oats (Avena fatua) [14]): 85%
DIGSA preemergence injury score 0-100 ([15]; 4.4 g/Ha): 100%
ABUTH postemergence injury score 0-100 [16]: 95%
CHEAL postemergence injury score 0-100 [17]: 90%
ECHCG preemergence injury score 0-100 ([18]; 4.4 g/Ha): 100%
ALOMY preemergence injury score 0-100 ([19]; 4.4 g/Ha): 100%
ALOMY postemergence injury score 0-100 [20]: 80%
SETFA preemergence injury score 0-100 ([21]; 4.4 g/Ha): 100%
XANST preemergence injury score 0-100 ([22]; 4.4 g/Ha): 80%

COc1sccc1S(=O)(=O)Nc1nc2c(OC)cnc(OC)n2n1 [Compound 8]
VIOTR postemergence injury score 0-100 (viola (Viola tricolor)): 75%
SORBI preemergence injury score 0-100 ([1]; 8.8 g/Ha): 70%
AVEFA preemergence injury score 0-100 (wild oats (Avena fatua) [2]; 8.8 g/Ha): 80%
STEME postemergence injury score 0-100 [3]: 95%
SETFA postemergence injury score 0-100 [4]: 60%
CHEAL preemergence injury score 0-100 ([5]; 8.8 g/Ha): 70%
EPHHL preemergence injury score 0-100 ([6]; 8.8 g/Ha): 85%
IPOHE preemergence injury score 0-100 ([8]; 8.8 g/Ha): 75%
XANST postemergence injury score 0-100 [9]: 60%
ABUTH preemergence injury score 0-100 ([10]; 8.8 g/Ha): 70%
SORBI postemergence injury score 0-100 [11]: 95%
AMARE preemergence injury score 0-100 ([12]; 8.8 g/Ha): 80%
IPOHE postemergence injury score 0-100 [13]: 60%
AVEFA postemergence injury score 0-100 (wild oats (Avena fatua) [14]): 85%
DIGSA preemergence injury score 0-100 ([15]; 8.8 g/Ha): 50%
ABUTH postemergence injury score 0-100 [16]: 75%
CHEAL postemergence injury score 0-100 [17]: 70%
ECHCG preemergence injury score 0-100 ([18]; 8.8 g/Ha): 25%
ALOMY preemergence injury score 0-100 ([19]; 8.8 g/Ha): 85%
ALOMY postemergence injury score 0-100 [20]: 50%
SETFA preemergence injury score 0-100 ([21]; 8.8 g/Ha): 60%
XANST preemergence injury score 0-100 ([22]; 8.8 g/Ha): 80%
